Assay results from patent US5773228A, “Activation-dependent protein expressed on the surface of activated platelets and antibodies thereto” (The General Hospital Corporation, priority 1995, dated 1998).

Tested on: platelets (TAPP-2 expression)
Assay: Expression of TAPP-2 on platelets stimulated by different agonists (binding of 125I-MAb 12A7)
Assay type: cell-based, rabbit
Settings: compared to resting platelets, 10 minutes at room temperature
Description: Platelets were incubated with various agonists, with or without Ca^2+ or EDTA and then fixed by paraformaldehyde. The fixed platelets were washed and incubated with ^125 I-MAb 12A7 (50,000 cpm), with or without unlabeled MAb 12A7 (0.5 ug) added as an inhibitor to estimate nonspecific binding. After 45 min. the platelet samples were again washed, spun, and aspirated. The platelet pellet was counted to determine the amount of bound MAb 12A7.
Equilibrium saturation binding studies were conducted in a similar manner. Platelets activated by thrombin (0.15 U/ml) were incubated in duplicate with various amounts of ^125 I-MAb 12A7 (1,000,000 to 6,250 cpm) in a total volume of 200 μl. Each tube also contained a molar excess (>100-fold) of a control, anti-digoxin MAb, of the same isotype (Mudgett-Hunter et al., Mol. Immunol. 22:477-488 (1985)), which was added to inhibit nonspecific binding of ^125 I-MAb 12A7 to platelets via Fc receptors. To estimate nonspecific binding, a molar excess (>100-fold) of nonradioactive MAb 12A7 was added to one set of tubes. After incubation for 45 minutes at room temperature 2 ml of cold Tyrode's buffer was added, the tubes were centrifuged at 3000 ×g for 10 minutes and the unbound ^125 I-12A7 MAb was removed. The bound antibody was measured by gamma counting in Micro-Medics 4/600 counter. To study the binding of MAb 12A7 to resting platelets a similar procedure was performed except that the number of platelets had to be increased to 1.29×10^8 cells in a total incubation volume of 400 μl. The platelets were incubated with various amounts of MAb 12A7 (2,000,000 to 25,000 cpm) as above. The binding data was analyzed by the Ligand program of Munson and Rodbard, Anal. Biochem. 107:220-239 (1980)). […] The binding of 12A7 to platelets stimulated by different agonists was also studied. Platelets were isolated as described above. Platelets (5×10^6 cells/40 Kl) in modified Tyrode's (without divalent cations) were added to plastic tubes. […] After 45 minutes the platelet samples were again washed, spun, aspirated and gamma-counted.

## CNC[C@H](O)c1ccc(O)c(O)c1 [epinephrine]
Epinephrine 2 μM
  TAPP-2 expression as indicated by the binding of 125I-MAb 12A7: little, if any, effect

## Nc1ncnc2c1ncn2[C@@H]1O[C@H](COP(=O)(O)OP(=O)(O)O)[C@@H](O)[C@H]1O [ADP]
ADP 10 μM
  TAPP-2 expression as indicated by the binding of 125I-MAb 12A7: notable increase

## CNc1ccc2oc(C[C@H]3O[C@@]4(CC[C@H]3C)O[C@H]([C@H](C)C(=O)c3ccc[nH]3)[C@H](C)C[C@H]4C)nc2c1C(=O)O [A23187]
A23187 2 μM
  TAPP-2 expression as indicated by the binding of 125I-MAb 12A7: notable increase
